Patent US20220323406A1, “METHODS AND COMPOSITIONS FOR DIFFERENTIATING STEM CELLS” (Massachusetts Institute of Technology, priority 2019, published 2022)

How the values were obtained:
[1] = system: ENR+CD organoids (ISC to Paneth cell differentiation); test: Primary screen: basal (non-stimulated) lysozyme secretion LYZ.NS, 2.5-D 384-well ENR+CD organoid differentiation; format: cell-based, mouse
Excerpt: (§1) High-throughput screening.

[2] = system: ENR+CD organoids (ISC to Paneth cell differentiation); test: Primary screen: CCh-stimulated lysozyme secretion LYZ.S, 2.5-D 384-well ENR+CD organoid differentiation; format: cell-based, mouse; details: primary screen
Excerpt: as §1

ENR+CD organoids = test: Primary screen: ATP (CellTiter-Glo 3D, CTG) cell number/viability, 2.5-D 384-well ENR+CD organoids; details: primary screen; for Z.CTG: standard z score;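 as to all read-outs here: compounds given at plating and again on day 3 over a 6-day differentiation from ENR+CV stem-cell-enriched precursors, ATP measured on day 6, plate median as control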
[3] = primary screen, standard z score, dose 0.08 uM
[4] = primary screen, standard z score, dose 0.40 uM
[5] = primary screen, standard z score, dose 2.00 uM
[6] = primary screen, standard z score, dose 10.00 uM
[7] = dose 0.08 uM, FC vs plate median
[8] = dose 0.40 uM, FC vs plate median
[9] = dose 2.00 uM, FC vs plate median
[10] = dose 10.00 uM, FC vs plate median

| SMILES | Dose.FC.LYZ.NS ([1]; primary screen, dose 0.08 uM) [log2 fold change] | Z.LYZ.NS (standard z score) ([1]; primary screen, dose 0.08 uM) | Dose.FC.LYZ.NS ([1]; primary screen, dose 0.40 uM) [log2 fold change] | Z.LYZ.NS (standard z score) ([1]; primary screen, dose 0.40 uM) | Dose.FC.LYZ.NS ([1]; primary screen, dose 2.00 uM) [log2 fold change] | Z.LYZ.NS (standard z score) ([1]; primary screen, dose 2.00 uM) | Dose.FC.LYZ.NS ([1]; primary screen, dose 10.00 uM) [log2 fold change] | Z.LYZ.NS (standard z score) ([1]; primary screen, dose 10.00 uM) | Dose.FC.LYZ.S ([2]; dose 0.08 uM) [log2 fold change] | Dose.FC.LYZ.S ([2]; dose 0.40 uM) [log2 fold change] | Dose.FC.LYZ.S ([2]; dose 2.00 uM) [log2 fold change] | Dose.FC.LYZ.S ([2]; dose 10.00 uM) [log2 fold change] | Dose.FC.CTG (ENR+CD organoids; dose 0.08 uM) [log2 fold change] | Z.CTG (standard z score) (ENR+CD organoids; dose 0.08 uM) | Dose.FC.CTG (ENR+CD organoids; dose 0.40 uM) [log2 fold change] | Z.CTG (standard z score) (ENR+CD organoids; dose 0.40 uM) | Dose.FC.CTG (ENR+CD organoids; dose 2.00 uM) [log2 fold change] | Z.CTG (standard z score) (ENR+CD organoids; dose 2.00 uM) | Dose.FC.CTG (ENR+CD organoids; dose 10.00 uM) [log2 fold change] | Z.CTG (standard z score) (ENR+CD organoids; dose 10.00 uM) | other results |
| --- | --- | --- | --- | --- | --- | --- | --- | --- | --- | --- | --- | --- | --- | --- | --- | --- | --- | --- | --- | --- | --- |
| CC(=O)Nc1cccc2c1c(Sc1ccc(Cl)cc1)c(C)n2CC(=O)O [AZD1981] | 0.009 | 0.081 | 0.001 | 0.008 | 0.001 | 0.011 | 0.024 | 0.205 | 0.023 | 0.191 | 0.014 | 0.070 | 0.400 | 0.955 | 0.285 | 0.681 | 0.099 | 0.236 | 0.238 | 0.570 |  |
| CCOC(=O)c1ccc(NC2CCCCC2)c(N)c1 [Ferrostatin-1 (Fer-1)] | 0.108 |  | 0.116 |  | 0.070 |  | 0.013 |  | 0.120 | 0.207 | 0.092 | −0.018 | 0.312 |  | 0.453 |  | 0.215 |  | −0.046 |  | Z.LYZ.NS [1, 3]: 0.944; Z.LYZ.NS [1, 4]: 1.012; Z.LYZ.NS [1, 5]: 0.610; Z.LYZ.NS [1, 6]: 0.116; Z.CTG (ENR+CD organoids; dose 0.08 uM): 0.745; Z.CTG (ENR+CD organoids; dose 0.40 uM): 1.082; Z.CTG (ENR+CD organoids; dose 2.00 uM): 0.514; Z.CTG (ENR+CD organoids; dose 10.00 uM): −0.109 |
| c1cc(-c2cnn3cc(-c4ccc(N5CCNCC5)cc4)cnc23)c2cccnc2c1 [LDN-212854] |  | 0.823 |  | 0.446 |  | −1.885 |  | −2.375 |  |  |  |  |  | 0.568 |  | 0.309 |  | −1.134 |  | −3.018 | Dose.FC.LYZ.NS (log2 fold change) ([1]; primary screen, dose 0.08 uM): 0.095; Dose.FC.LYZ.NS (log2 fold change) ([1]; primary screen, dose 0.40 uM): 0.051; Dose.FC.LYZ.NS (log2 fold change) ([1]; primary screen, dose 2.00 uM): −0.217; Dose.FC.LYZ.NS (log2 fold change) ([1]; primary screen, dose 10.00 uM): −0.273; Dose.FC.LYZ.S (log2 fold change) ([2]; dose 0.08 uM): 0.162; Dose.FC.LYZ.S (log2 fold change) ([2]; dose 0.40 uM): 0.026; Dose.FC.LYZ.S (log2 fold change) ([2]; dose 2.00 uM): −0.292; Dose.FC.LYZ.S (log2 fold change) ([2]; dose 10.00 uM): −0.399; Dose.FC.CTG (log2 fold change) (ENR+CD organoids; dose 0.08 uM): 0.238; Dose.FC.CTG (log2 fold change) (ENR+CD organoids; dose 0.40 uM): 0.129; Dose.FC.CTG (log2 fold change) (ENR+CD organoids; dose 2.00 uM): −0.475; Dose.FC.CTG (log2 fold change) (ENR+CD organoids; dose 10.00 uM): −1.263 |
| CCCS(=O)(=O)Nc1ccc(F)c(C(=O)c2c[nH]c3ncc(-c4ccc(Cl)cc4)cc23)c1F [Vemurafenib (PLX4032, RG7204)] | 0.090 | 0.786 | 0.053 | 0.462 | 0.047 | 0.411 | 0.030 | 0.263 | 0.120 | 0.150 | 0.055 | 0.022 | 0.124 | 0.297 | −0.082 | −0.195 | −0.006 | −0.014 | 0.030 | 0.073 |  |
| Cc1cc([C@@H](C)Nc2ccccc2C(=O)O)c2nc(N3CCOCC3)cc(=O)n2c1 [AZD6482] | 0.108 | 0.944 | 0.076 | 0.660 | −0.130 | −1.129 | −0.248 | −2.160 | 0.182 | 0.156 | −0.114 | −0.253 | 0.240 | 0.572 | 0.223 | 0.533 | −0.509 | −1.215 | −1.203 | −2.874 |  |
| c1ccc(NCc2ccc(CNc3ccccn3)cc2)nc1 [WZ811] | 0.154 | 1.337 | 0.019 | 0.162 | 0.094 | 0.815 | 0.005 | 0.045 | 0.296 | 0.007 | 0.074 | 0.019 | 0.140 | 0.334 | −0.034 | −0.082 | 0.077 | 0.184 | 0.044 | 0.104 |  |
| Cc1cc(OCc2nnc(SC3CCCC3)n2-c2cccnc2)ccc1-c1ccc(S(C)(=O)=O)cc1 [NMS-873] |  |  |  |  |  |  |  |  |  |  |  |  |  |  |  |  |  |  |  |  | Z.LYZ.NS ([1]; primary screen, dose 0.08 uM, standard z score): 0.853; Z.LYZ.NS ([1]; primary screen, dose 0.40 uM, standard z score): −1.537; Z.LYZ.NS ([1]; primary screen, dose 2.00 uM, standard z score): −2.352; Z.LYZ.NS ([1]; primary screen, dose 10.00 uM, standard z score): −2.368; Dose.FC.LYZ.NS ([1]; primary screen; dose 0.08 uM; FC vs plate median): 0.098 log2 fold change; Dose.FC.LYZ.NS ([1]; primary screen; dose 0.40 uM; FC vs plate median): −0.177 log2 fold change; Dose.FC.LYZ.NS ([1]; primary screen; dose 2.00 uM; FC vs plate median): −0.270 log2 fold change; Dose.FC.LYZ.NS ([1]; primary screen; dose 10.00 uM; FC vs plate median): −0.272 log2 fold change; Dose.FC.LYZ.S [2, 7]: 0.069 log2 fold change; Dose.FC.LYZ.S [2, 8]: −0.228 log2 fold change; Dose.FC.LYZ.S [2, 9]: −0.343 log2 fold change; Dose.FC.LYZ.S [2, 10]: −0.375 log2 fold change; Dose.FC.CTG (ENR+CD organoids; [7]): 0.174 log2 fold change; Dose.FC.CTG (ENR+CD organoids; [8]): −0.051 log2 fold change; Dose.FC.CTG (ENR+CD organoids; [9]): −0.910 log2 fold change; Dose.FC.CTG (ENR+CD organoids; [10]): −1.542 log2 fold change |
| CC1=C(C(=O)OC2CCCCC2)C(c2ccc([N+](=O)[O-])cc2)C2=C(CC(C)(C)CC2=O)N1 (stereo not drawn) [FLI-06] | 0.050 |  | −0.026 |  | −0.054 |  | −0.140 |  | 0.079 | 0.010 | −0.077 | −0.170 | 0.089 |  | 0.095 |  | 0.076 |  | −0.343 |  | Z.LYZ.NS [1, 3]: 0.439; Z.LYZ.NS [1, 4]: −0.230; Z.LYZ.NS [1, 5]: −0.466; Z.LYZ.NS [1, 6]: −1.216; Z.CTG (ENR+CD organoids; dose 0.08 uM): 0.213; Z.CTG (ENR+CD organoids; dose 0.40 uM): 0.226; Z.CTG (ENR+CD organoids; dose 2.00 uM): 0.182; Z.CTG (ENR+CD organoids; dose 10.00 uM): −0.819 |
